pKi: −log10 of the molar value.
Tests used:
[1] = target: T1, ATP-binding cassette sub-family C member 2 (Rattus norvegicus, UniProt Q63120); test: TP_TRANSPORTER: inhibition of SN-38 uptake in bile canalicular membrane vesicles from SD rat; assay type: functional, cell membranes, Sprague-Dawley, Bile canalicular membrane vesicle
[2] = target: T1, ATP-binding cassette sub-family C member 2; test: TP_TRANSPORTER: inhibition of DNP-SG uptake in bile canalicular membrane vesicles from SD rat; assay type: functional, cell membranes, Sprague-Dawley, Bile canalicular membrane vesicle
[3] = target: ATP-binding cassette sub-family C member 2 (Rattus norvegicus) (UniProt Q63120); test: TP_TRANSPORTER: inhibition of SN-38 uptake in bile canalicular membrane vesicles
[4] = target: T1, ATP-binding cassette sub-family C member 2; test: TP_TRANSPORTER: inhibition of DNP-SG uptake in blie canalicular membrane vesicle from SD rat; assay type: functional, cell membranes, Sprague-Dawley, Bile canalicular membrane vesicle

T1 sequence (Q63120 whole entry): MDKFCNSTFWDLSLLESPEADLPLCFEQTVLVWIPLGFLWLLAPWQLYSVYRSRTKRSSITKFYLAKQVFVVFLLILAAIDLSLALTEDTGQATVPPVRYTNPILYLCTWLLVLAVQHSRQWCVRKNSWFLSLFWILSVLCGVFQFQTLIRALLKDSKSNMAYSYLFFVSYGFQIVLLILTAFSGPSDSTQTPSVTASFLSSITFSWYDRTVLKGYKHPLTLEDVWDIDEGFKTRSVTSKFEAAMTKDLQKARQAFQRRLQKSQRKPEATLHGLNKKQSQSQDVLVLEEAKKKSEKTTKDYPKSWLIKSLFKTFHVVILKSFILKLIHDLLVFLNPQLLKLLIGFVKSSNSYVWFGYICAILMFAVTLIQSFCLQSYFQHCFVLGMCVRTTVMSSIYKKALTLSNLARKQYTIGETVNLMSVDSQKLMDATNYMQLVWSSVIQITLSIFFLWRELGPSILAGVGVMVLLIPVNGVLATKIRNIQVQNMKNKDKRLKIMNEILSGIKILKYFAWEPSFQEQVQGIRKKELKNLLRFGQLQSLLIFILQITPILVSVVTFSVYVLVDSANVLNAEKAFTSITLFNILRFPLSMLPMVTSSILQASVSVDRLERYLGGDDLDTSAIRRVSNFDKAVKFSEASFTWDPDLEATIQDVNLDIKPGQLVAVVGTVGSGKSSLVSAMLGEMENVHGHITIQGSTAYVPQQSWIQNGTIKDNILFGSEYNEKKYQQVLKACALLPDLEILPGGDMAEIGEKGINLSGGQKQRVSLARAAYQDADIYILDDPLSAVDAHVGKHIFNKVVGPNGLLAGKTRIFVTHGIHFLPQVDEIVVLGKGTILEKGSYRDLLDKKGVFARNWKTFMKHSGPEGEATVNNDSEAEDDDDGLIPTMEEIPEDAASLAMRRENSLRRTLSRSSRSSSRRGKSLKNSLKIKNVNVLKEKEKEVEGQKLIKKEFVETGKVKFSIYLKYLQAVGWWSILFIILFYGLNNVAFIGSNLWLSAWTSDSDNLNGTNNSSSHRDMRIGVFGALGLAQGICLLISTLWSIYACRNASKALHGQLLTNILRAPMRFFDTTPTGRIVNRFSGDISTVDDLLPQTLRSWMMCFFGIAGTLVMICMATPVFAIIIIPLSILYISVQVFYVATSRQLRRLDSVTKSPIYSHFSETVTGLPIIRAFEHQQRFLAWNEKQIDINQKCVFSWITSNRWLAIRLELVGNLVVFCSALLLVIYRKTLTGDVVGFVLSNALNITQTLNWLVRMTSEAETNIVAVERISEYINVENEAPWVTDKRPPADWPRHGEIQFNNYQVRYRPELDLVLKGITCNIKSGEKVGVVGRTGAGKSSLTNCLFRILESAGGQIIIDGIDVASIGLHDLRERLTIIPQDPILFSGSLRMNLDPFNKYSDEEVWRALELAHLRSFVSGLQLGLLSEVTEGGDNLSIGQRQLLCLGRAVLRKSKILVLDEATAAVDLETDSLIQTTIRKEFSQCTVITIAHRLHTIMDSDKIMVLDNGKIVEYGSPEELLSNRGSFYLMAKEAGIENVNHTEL
Sequence of ATP-binding cassette sub-family C member 2 (Rattus norvegicus) (Q63120 whole entry, looked up): as the sequence (Q63120 whole entry) above

Molecule | pKi [2] | other results
O=C1OC(c2ccc(O)c(S(=O)(=O)O)c2)(c2ccc(O)c(S(=O)(=O)O)c2)c2c(Br)c(Br)c(Br)c(Br)c21 [SULFOBROMOPHTHALEIN SODIUM] | 5.66 | pKi [1]: 5.54
O=C(Nc1cccc2c(=O)cc(-c3nnn[nH]3)oc12)c1ccc(OCCCCc2ccccc2)cc1 [PRANLUKAST] | 4.39 | 
CC1(C)C(/C=C/C=C/C=C/C=C2\N(CCCCS(=O)(=O)O)c3ccc4ccccc4c3C2(C)C)=[N+](CCCCS(=O)(=O)[O-])c2ccc3ccccc3c21 [INDOCYANINE GREEN] | 6.00 | 
CO/N=C(\C(=O)N[C@@H]1C(=O)N2C(C(=O)O)=C(CSc3nc(C)c(CC(=O)O)s3)CS[C@H]12)c1csc(N)n1 [CEFODIZIME] | 5.00 | 
CC1(C)[C@@H](O[C@H]2O[C@H](C(=O)O)[C@@H](O)[C@H](O)[C@H]2O[C@@H]2O[C@H](C(=O)O)[C@@H](O)[C@H](O)[C@H]2O)CC[C@]2(C)[C@H]3C(=O)C=C4[C@@H]5C[C@@](C)(C(=O)O)CC[C@]5(C)CC[C@@]4(C)[C@]3(C)CC[C@@H]12 [GLYCYRRHIZIN] | 6.08 | pKi [1]: 5.72
N[C@@H](CCC(=O)N[C@@H](CSc1c(Br)c(Br)c2c(c1Br)C(=O)OC2(c1ccc(O)c(S(=O)(=O)O)c1)c1ccc(O)c(S(=O)(=O)O)c1)C(=O)NCC(=O)O)C(=O)O | 7.34 | 
O=C(O)[C@H]1O[C@@H](Oc2cc3oc(-c4ccccc4)cc(=O)c3c(O)c2O)[C@H](O)[C@@H](O)[C@@H]1O [BAICALIN] | 5.10 | 
CREMOPHOR EL | 3.55 | 
Nc1nc2c(c(=O)[nH]1)N(C=O)C(CNc1ccc(C(=O)N[C@@H](CCC(=O)O)C(=O)O)cc1)CN2 (stereo partly drawn) [LEUCOVORIN] | 3.88 | 
CCCN(CCC)S(=O)(=O)c1ccc(C(=O)O)cc1 [PROBENECID] |  | pKi [3]: 4.37; pKi [4]: 4.35

— ChEMBL document CHEMBL2074105, “The potential for an interaction between MRP2 (ABCC2) and various therapeutic agents: probenecid as a candidate inhibitor of the biliary excretion of irinotecan metabolites” (Drug Metabol Pharmacokin, 2002)
